Values quoted from earlier work in article PMC5260004, “Permeability across a novel microfluidic blood-tumor barrier model” (Fluids and Barriers of the CNS, 2017).

Tested on: P-gp
Design: method as in PMID 23916719
Conditions: in vivo, rhodamine 123 and an inhibitor of P-gp administered concurrently

fold higher dye accumulation in brain with P-gp inhibitor than in the absence of efflux inhibition: 10- to 12 fold
Compound: COC(=O)c1ccccc1-c1c2ccc(=N)cc-2oc2cc(N)ccc12 [Rho123, Rhodamine 123]
